For assay [1], the target named is T1, Bile acid receptor (Homo sapiens) (UniProt Q96RI1).
T1 sequence (whole entry): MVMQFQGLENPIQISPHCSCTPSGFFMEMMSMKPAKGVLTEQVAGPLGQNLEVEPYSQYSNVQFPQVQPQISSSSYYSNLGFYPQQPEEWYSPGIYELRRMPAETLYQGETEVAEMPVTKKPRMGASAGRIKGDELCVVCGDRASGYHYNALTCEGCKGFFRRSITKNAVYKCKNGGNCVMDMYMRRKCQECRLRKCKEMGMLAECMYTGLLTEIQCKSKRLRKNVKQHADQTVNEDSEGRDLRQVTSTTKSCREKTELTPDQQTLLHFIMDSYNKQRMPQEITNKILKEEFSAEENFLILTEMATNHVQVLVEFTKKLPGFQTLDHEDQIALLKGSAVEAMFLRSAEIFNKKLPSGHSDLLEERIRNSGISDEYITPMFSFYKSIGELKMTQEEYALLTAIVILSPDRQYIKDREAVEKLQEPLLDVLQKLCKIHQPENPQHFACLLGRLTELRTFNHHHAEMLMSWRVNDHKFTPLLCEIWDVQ
As to the kind of experiment: (§1) Agonist activity at human farnesoid-X-receptor expressed in HEK293T cells co-expressing human RXRalpha assessed as receptor activation after 20 hrs by dual luciferase reporter assay. The format is cell-based. The note with it: HEK-293T.

For another assay, the target named is T2, Bile acid receptor (Homo sapiens, UniProt Q96RI1).
T2 sequence (Q96RI1 whole entry): T1 sequence (whole entry)
The assay is described as §1. The class given is cell-based, HEK-293T.

SMILES strings stand for the structures.

As usually defined, the EC50 is the concentration at which the effect is half-maximal. As to `CC(C)(C)OC(=O)/N=C(\NCCCc1cc(C(=O)NCc2ccncc2)no1)NC(=O)OC(C)(C)C`, in assay [1], the Activity entry was “Dose-dependent effect”. At Bile acid receptor, the concentration for a half-maximal effect (EC50) was 15.4 µM.

With `CC(C)(C)OC(=O)/N=C(/NCCc1cc(NC(=O)Nc2ccncc2)no1)NC(=O)OC(C)(C)C`, the Activity entry in assay [1] is “Dose-dependent effect”. Besides, at Bile acid receptor, the EC50 came to 29.9 µM.

Values taken from ChEMBL document CHEMBL3739375, “Identifying farnesoid X receptor agonists by naive Bayesian and recursive partitioning approaches” (Medchemcomm, 2015).
